The text below walks through data of patent US9511086B2, “Method for improving immune system function by administering agents that inhibit DNA-dependent protein kinase-directed apoptosis” (The Board of Trustees of the Leland Stanford Junior …, priority 2010, dated 2016).

The subject of experiment [1] is CD4+CD45RO− T cells from control donors. Put plainly: T-cell apoptosis by flow cytometry staining for PI, control T cells. It counts as cell-based, human. How it is done: FIG. 5. Inhibition of DNA-PKcs activity protects RA T cells from apoptosis. CD4+CD45RO− T cells were isolated from 6 control donors and 7 RA patients. Cells were maintained in culture without stimulation for 48 h and then were treated with the DNA-PKcs inhibitor IC86621 (50 nM, 100 nM) or vehicle for 24 h. Cells were harvested and (A) T-cell apoptosis was measured by flow cytometry staining for PI. Representative cytometric data from one patient and one control are shown. (B) Frequencies of PI-positive T-cells in the absence and presence of the DNA-PKcs inhibitor from 6 controls and 7 RA patients are presented as mean±SEM.
Peripheral blood mononuclear cells (PBMC) were separated from whole blood with Lymphocyte Separation Medium (Mediatech Inc., Herndon, Va.). CD45RO^− cells were negatively selected with microbeads (Miltenyi Biotec Inc., Auburn, Calif.), and the naïve CD4^+CD45RO^− population was subsequently selected with CD4 microbeads (autoMACS, Miltenyi Biotec Inc.). […]
To quantify T-cell apoptosis, CD4^+CD45RO^− cells were washed and suspended in 500 μl FACS buffer supplemented with EasyComp Blank Particles (Spherotech, Lake Forest, Ill.). Uptake of PI (Sigma-Aldrich) was determined by flow cytometry. Apoptotic cells were detected with PE-Annexin V (BD Biosciences, San Jose, Calif.) and 7-AAD (BD Biosciences).
(In general: In flow cytometry, cells or beads pass a laser one at a time.)

A further experiment has as its system Bmf. Put plainly: Bmf protein level by flow cytometry in RA T cells. It is filed as cell-based, human. The conditions noted are these: treated vs untreated. The protocol: FIG. 8. The DNA-PKcs-JNK pathway upregulates the apoptogenic molecules Bim and Bmf in RA CD4+ T cells. CD4+CD45RO− T cells were isolated from the peripheral blood of 6 controls and 6 RA patients. Cells were maintained in culture without mitogenic stimulation for 72 h. (A) Puma, Noxa, Bim and Bmf transcript levels in freshly isolated cells were quantified by qPCR. Data are presented as mean±SEM. (B) Flow cytometry analysis of Bim levels in control and RA naïve T cells after 72 h of culture. Expression of Bim protein in n=5 RA and n=5 controls samples is given as MFI of Alexa Fluor 488 Bim. (C) Flow cytometry analysis of Bmf levels in control and RA naïve T cells. Expression of Bmf protein in n=6 RA and n=4 controls samples is given as MFI of PE Bmf. (D) Bcl-2 protein levels were analyzed by flow cytometry. Expression of Bcl-2 protein in n=6 RA and n=6 control samples is given as MFI of FITC Bcl-2. (E) Bim protein level in the absence and presence of the DNA-PKcs inhibitor were analyzed by flow cytometry in samples from 4 RA patients. […]
For intracellular staining, cells were fixed directly with 1.5% formaldehyde for 10 min at room temperature and resuspended in 90% methanol. […] Proteins or 8-oxoguanine expression were detected by an LSRII flow cytometer (BD Biosciences). Data were analyzed by FlowJo software (Tree Star Inc., Ashland, Oreg.). […]

The test system of a further experiment is protein kinase A. The following applies: concentrations of up to 100 μM; cited from earlier work.
Another experiment has as its system protein kinase C. The conditions noted are these: concentrations of up to 100 μM; cited from earlier work.
For experiment [2], the target named is T1, checkpoint protein kinase 1 (Homo sapiens, UniProt O14757).
T1 sequence (O14757 1-476): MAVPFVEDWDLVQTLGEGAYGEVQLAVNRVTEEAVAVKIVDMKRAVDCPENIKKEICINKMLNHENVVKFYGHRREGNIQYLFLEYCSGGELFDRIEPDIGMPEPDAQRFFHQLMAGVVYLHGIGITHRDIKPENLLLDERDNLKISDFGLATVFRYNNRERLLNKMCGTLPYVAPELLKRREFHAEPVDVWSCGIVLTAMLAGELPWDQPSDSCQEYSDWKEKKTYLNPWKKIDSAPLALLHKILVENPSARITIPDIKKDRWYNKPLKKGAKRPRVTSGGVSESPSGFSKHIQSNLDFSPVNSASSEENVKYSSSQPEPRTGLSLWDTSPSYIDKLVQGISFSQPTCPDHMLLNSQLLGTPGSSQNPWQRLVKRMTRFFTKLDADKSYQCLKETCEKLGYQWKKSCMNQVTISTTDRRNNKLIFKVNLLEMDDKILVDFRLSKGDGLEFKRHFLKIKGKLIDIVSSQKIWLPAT
The following applies: concentrations of up to 100 μM; cited from earlier work.

For experiment [3], the target named is cyclin-dependent kinase 2 (Homo sapiens, UniProt P24941). The conditions noted are these: concentrations of up to 100 μM; cited from earlier work.
In experiment [4] the target is Rous sarcoma tyrosine kinase (Homo sapiens, UniProt P12931). The conditions noted are these: concentrations of up to 100 μM; cited from earlier work.
In another experiment the target is aurora-related kinase 2 (Homo sapiens, UniProt Q96GD4). The following applies: concentrations of up to 100 μM; cited from earlier work.
The target in another experiment is ATR (Homo sapiens, UniProt Q13535). The following applies: concentrations of up to 100 μM; cited from earlier work.
Chain of ATR (Q13535 whole entry): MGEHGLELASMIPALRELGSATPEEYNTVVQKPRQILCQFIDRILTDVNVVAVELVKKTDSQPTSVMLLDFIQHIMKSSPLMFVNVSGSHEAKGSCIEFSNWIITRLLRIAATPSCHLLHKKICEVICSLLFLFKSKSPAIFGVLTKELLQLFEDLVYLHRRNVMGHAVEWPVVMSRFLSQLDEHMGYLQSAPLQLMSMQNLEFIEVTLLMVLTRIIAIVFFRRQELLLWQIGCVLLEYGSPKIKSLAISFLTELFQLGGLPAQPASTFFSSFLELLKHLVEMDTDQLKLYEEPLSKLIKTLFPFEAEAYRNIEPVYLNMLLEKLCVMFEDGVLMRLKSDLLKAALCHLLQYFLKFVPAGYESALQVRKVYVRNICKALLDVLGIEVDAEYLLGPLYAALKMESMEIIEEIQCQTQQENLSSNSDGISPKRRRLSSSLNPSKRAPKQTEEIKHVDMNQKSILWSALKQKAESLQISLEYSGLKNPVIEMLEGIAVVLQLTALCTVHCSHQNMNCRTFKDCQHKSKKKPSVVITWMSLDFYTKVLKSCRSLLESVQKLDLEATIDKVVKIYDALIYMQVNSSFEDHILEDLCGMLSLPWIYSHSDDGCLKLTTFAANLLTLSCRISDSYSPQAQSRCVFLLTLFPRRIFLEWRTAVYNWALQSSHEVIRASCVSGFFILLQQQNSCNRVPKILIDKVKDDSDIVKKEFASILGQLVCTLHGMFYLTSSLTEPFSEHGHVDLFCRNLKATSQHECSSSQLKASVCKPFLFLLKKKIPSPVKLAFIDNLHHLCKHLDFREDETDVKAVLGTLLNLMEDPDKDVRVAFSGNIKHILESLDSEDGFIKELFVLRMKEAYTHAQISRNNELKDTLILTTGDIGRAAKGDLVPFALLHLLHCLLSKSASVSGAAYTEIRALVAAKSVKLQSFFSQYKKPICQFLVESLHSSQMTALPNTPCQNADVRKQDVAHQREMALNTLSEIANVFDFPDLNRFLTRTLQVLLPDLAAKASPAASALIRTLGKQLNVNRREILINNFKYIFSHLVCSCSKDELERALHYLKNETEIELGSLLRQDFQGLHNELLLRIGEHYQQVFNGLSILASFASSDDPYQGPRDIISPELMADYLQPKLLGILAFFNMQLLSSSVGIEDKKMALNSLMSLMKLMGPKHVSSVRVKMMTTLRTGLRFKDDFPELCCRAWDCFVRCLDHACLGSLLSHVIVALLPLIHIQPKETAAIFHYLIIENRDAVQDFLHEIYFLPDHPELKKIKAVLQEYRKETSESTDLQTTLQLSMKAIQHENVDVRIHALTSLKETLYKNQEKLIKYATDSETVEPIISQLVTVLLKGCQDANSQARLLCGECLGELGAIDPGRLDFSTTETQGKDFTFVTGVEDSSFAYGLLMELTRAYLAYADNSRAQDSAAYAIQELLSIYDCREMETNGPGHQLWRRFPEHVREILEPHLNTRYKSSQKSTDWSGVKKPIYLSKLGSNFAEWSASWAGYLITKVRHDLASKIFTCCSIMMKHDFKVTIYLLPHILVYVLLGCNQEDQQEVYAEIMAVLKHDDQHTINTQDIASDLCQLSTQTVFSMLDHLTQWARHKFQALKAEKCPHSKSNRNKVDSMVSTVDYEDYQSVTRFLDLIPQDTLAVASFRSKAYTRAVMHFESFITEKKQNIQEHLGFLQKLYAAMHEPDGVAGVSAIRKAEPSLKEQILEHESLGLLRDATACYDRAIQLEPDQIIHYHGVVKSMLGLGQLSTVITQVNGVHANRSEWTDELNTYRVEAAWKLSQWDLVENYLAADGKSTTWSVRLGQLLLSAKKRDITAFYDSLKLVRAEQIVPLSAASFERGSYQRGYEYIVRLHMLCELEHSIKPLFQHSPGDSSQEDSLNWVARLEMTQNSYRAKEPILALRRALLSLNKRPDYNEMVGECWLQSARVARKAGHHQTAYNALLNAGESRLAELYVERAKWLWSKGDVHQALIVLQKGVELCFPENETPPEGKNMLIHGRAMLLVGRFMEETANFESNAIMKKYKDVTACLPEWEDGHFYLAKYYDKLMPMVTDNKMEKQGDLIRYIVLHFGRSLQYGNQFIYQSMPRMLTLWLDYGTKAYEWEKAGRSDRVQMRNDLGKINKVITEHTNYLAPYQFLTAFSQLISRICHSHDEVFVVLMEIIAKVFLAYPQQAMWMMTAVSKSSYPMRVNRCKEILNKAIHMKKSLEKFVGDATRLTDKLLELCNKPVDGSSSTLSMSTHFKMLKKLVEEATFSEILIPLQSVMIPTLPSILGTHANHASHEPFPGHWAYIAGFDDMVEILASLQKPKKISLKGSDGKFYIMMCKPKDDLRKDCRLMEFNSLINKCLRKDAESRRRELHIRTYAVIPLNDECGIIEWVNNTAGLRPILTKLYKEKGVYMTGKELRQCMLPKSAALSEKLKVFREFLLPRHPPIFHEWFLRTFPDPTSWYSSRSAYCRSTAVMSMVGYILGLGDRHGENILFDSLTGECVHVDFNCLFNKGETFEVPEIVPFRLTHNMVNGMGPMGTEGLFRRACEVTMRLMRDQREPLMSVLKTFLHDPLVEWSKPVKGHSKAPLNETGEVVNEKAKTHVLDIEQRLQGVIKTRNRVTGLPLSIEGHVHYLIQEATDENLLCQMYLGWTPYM
Chain of ATR (Q8WXE1 whole entry partner): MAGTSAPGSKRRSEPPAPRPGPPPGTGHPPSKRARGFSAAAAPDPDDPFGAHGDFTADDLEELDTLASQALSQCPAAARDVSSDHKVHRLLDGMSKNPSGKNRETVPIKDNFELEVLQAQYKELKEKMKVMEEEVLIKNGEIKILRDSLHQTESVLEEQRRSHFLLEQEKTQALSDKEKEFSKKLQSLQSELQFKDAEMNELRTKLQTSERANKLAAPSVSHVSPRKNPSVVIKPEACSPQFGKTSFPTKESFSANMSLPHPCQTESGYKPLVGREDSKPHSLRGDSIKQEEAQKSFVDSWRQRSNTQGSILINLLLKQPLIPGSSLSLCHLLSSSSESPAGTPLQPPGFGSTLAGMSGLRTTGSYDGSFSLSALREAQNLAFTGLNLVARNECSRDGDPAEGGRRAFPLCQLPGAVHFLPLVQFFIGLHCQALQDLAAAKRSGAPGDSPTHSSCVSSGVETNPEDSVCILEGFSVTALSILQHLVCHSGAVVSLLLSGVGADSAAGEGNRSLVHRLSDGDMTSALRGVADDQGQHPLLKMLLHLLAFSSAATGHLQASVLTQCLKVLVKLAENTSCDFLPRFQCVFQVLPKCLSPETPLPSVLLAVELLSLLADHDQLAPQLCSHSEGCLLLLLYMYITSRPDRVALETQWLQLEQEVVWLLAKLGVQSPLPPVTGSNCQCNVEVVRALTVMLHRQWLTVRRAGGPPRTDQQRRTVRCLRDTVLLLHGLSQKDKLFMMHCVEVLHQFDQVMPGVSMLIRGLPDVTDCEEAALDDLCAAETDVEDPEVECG

Chain of Rous sarcoma tyrosine kinase (P12931 whole entry): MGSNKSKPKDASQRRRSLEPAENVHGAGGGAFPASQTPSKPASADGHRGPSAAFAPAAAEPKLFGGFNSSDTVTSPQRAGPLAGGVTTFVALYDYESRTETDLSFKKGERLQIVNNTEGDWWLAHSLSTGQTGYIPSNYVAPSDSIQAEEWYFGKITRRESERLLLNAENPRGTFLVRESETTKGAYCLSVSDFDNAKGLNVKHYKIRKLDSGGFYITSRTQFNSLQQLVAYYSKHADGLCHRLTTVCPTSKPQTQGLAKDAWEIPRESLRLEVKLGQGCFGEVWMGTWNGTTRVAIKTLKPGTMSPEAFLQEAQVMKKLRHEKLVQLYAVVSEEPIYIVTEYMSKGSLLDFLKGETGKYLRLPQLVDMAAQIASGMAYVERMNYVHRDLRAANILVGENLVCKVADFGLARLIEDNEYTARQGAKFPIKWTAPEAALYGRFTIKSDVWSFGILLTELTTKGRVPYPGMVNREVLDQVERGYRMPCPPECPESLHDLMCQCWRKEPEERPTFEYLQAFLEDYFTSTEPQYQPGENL
Chain of aurora-related kinase 2 (Q96GD4 whole entry): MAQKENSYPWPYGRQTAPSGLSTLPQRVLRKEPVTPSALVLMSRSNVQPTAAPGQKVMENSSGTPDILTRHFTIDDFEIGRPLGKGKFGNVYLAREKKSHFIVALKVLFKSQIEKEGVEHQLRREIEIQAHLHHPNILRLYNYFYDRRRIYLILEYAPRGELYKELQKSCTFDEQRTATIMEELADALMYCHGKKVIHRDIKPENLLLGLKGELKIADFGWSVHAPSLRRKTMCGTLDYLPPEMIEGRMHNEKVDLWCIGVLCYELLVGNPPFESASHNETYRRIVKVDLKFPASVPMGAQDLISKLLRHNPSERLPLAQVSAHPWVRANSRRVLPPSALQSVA

In the case of `CC(=O)c1ccc(N2CCOCC2)cc1O` [IC86621, 1-(2-hydroxy-4-morpholin-4-ylphenyl)ethanone], the “apoptotic control T cells” value in [1] (after 72 h of ex vivo culture, independent from treatment with the inhibitor) is recorded as 12-14%. Also, in experiment [1] (control T cells, inhibitor 50 nM, 100 nM for 24 h), the “survival in control T cells” value is “essentially did not affect survival”. The “intracellular Bmf levels” value in the experiment with Bmf is listed as “reduced”. In addition, in the experiment on protein kinase A, the “activity against protein kinase A” value was “neither activity”. In addition, the “activity against protein kinase C” value in the experiment on protein kinase C is given as “neither activity”. For the same compound, the “activity against checkpoint protein kinase 1” value in experiment [2] was “neither activity”. Moreover, the “activity against cyclin-dependent kinase 2” value in experiment [3] is listed as “neither activity”. For the same compound, in [4], the “activity against Rous sarcoma tyrosine kinase” value is “neither activity”. Moreover, the “activity against aurora-related kinase 2” value on aurora-related kinase 2 was “neither activity”. Moreover, the “activity against ATR” value at ATR is “neither activity”.
